The assay has as its target T1, human OX2R (Homo sapiens, UniProt O43614).
T1 construct: expressed in transfected cells; host or cells: CHO (Chinese hamster ovary) cells, grown under G418 selection
T1 sequence (O43614 1-444): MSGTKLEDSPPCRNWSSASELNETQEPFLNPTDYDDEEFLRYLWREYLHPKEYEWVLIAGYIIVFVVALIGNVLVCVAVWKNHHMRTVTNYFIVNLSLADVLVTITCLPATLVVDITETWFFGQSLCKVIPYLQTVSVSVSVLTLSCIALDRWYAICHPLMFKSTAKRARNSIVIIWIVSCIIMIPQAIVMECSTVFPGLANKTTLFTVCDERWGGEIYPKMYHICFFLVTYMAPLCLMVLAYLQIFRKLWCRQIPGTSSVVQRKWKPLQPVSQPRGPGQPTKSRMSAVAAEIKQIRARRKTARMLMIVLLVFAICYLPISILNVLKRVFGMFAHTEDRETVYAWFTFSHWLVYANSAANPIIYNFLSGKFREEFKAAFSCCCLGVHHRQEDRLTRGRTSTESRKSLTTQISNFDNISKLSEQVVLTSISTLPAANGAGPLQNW
In words: IPOne (IP-1 accumulation) assay in CHO cells expressing human OX2R. It counts as cell-based. The note with it: for Emax, % of reference agonist: OX2R, percentage of sample raw value/mean max effect (reference compound at 1 uM with 100% activity). An excerpt: The utility of the compounds in accordance with the present invention as orexin receptor OX1R and/or OX2R agonists may be readily determined without undue experimentation by methodology well known in the art. Both the OX1R and/or OX2R G-coupled protein receptors (GPCRs) couple through the Gaq signaling pathway, which ultimately promotes calcium mobilization via inositol triphosphate (IP3) production. The half-life of IP-3 is relatively short, being rapidly metabolized to inositol monophosphate (IP-1), which can be readily detected using a commercially available assay kit (IP-One; Cisbio; cat #621PAPEC) coupled with a cell line expressing the target receptor(s) of interest. The utility of the compounds in accordance with the present invention as orexin receptor OX1R and/or OX2R agonists may be determined utilizing this assay.
In a typical experiment, the OX1 and OX2 receptor agonist activity is determined in accordance with the following general experimental method. Chinese hamster ovary (CHO) cells expressing human OX1R and/or the human OX2R were grown in Iscove's modified DMEM containing glutaMAX™, 1% G418, 100 U/mL penicillin, 100 μg/mL streptomycin and 10% heat-inactivated qualified fetal bovine serum (FBS). The OX2R cells were seeded at 10,000 cells/well/50 μL and the OX1R cells were seeded at 20,000 cells/well/50 μL into 384-well white tissue culture plates (Greiner; cat #781080). All cell/media reagents were from GIBCO-Invitrogen Corp. The seeded cell plate(s) were incubated at 37° C. with 5% CO2 and 85% humidity for 20-24 hours. On the day of the assay, assay-ready compound plates were prepared using an acoustic liquid handler (ECHO; Labcyte), which dispensed sufficient volume of test compound stock (10 mM in DMSO) or 100% DMSO to prepare 10 point, ½-log dilutions in a final volume of 202.5 nL/well in all test wells of a 384-well diamond plate (Labcyte). Following completion of assay-ready plates, importantly, the next three steps were performed with minimal delay: 1) 20 μl of 1× stimulation buffer was added to the compound plate using a Multidrop Combi (small cassette, Thermo Fisher Scientific cat #24073290); 2) culture medium was removed from the cell plate using the Bluewasher plate washer (gentle spin; BlueCatBio); 3) 14 μl of compound/stimulation buffer mixture was added to the cell plate using a Bravo liquid handler (Agilent) prior to incubating cell plates at 37° C. with 5% CO2 and 85% humidity for 1 or 2 hours (OX1R and OX2R, respectively). During this incubation, IP-one detection reagents were prepared (38:1:1 lysis buffer:D2:AB-cryptate reagents). Six μL of mixed detection reagents were added to the cell plate using a Multidrop Combi (small cassette, Thermo Fisher Scientific cat #24073290) and incubated 60 minutes at room temperature in the dark. Fluorescence signal was detected using an Envision plate reader (Perkin Elmer) [LANCE/DELFIA Dual Enh (Em: APC 665; Ex: Cy5 620)].
For each compound, data were fit to a four parameter logistic fit (ActivityBase software) and the EC50 was reported as the inflection point of the resulting curve. Percent effect for each test compound was determined as the percentage of sample raw value/mean max effect, where the mean max effect was derived from the mean raw value of 32 control wells per assay plate (using Orexin A (cat #003-30) at 1 μM for human OX1R and a reference compound at 1 uM with 100% activity previously established by comparison to Orexin A for human OX2R). The intrinsic orexin receptor agonist activity of a compound which may be used in the present invention may be determined by these assays.

The mark [1] stands for this setting: CHO cells expressing human OX2R, IP-One assay, 2 hours incubation, four parameter logistic fit, read-out: OX2R Potency, EC50.

Structures are written as SMILES. pEC50: −log10 of the molar value. Where two headings read alike, the source gives them in different places.

As for `CCNC(=O)N1CC[C@H](NS(C)(=O)=O)[C@@H]1CO[C@H]1CC[C@@H](c2ccccc2)CC1` (relative stereo) [Example 1, (CIS)-N-ethyl-3-(methylsulfonamido)-2-((((CIS)-4-phenylcyclohexyl)oxy)methyl)pyrrolidine-1-carboxamide], the pEC50 is 7.92 and the “Emax, % of reference agonist” value amounted to 99.6%.

In the case of `COC(=O)N1CC[C@H](NS(C)(=O)=O)[C@@H]1CO[C@H]1CC[C@@H](c2ccccc2)CC1` (relative stereo) [Example 2, methyl (CIS)-3-(methylsulfonamido)-2-((((CIS)-4-phenylcyclohexyl)oxy)-methyl)pyrrolidine-1-carboxylate], the “Emax, % of reference agonist” value is reported as 96.4%. Also, the pEC50 under setting [1] was 6.48.

Regarding `CC(=O)N1CC[C@H](NS(C)(=O)=O)[C@@H]1CO[C@H]1CC[C@@H](c2ccccc2)CC1` (relative stereo) [Example 3, N-((CIS)-1-acetyl-2-((((CIS)-4-phenylcyclohexyl)oxy)methyl)pyrrolidin-3-yl)methanesulfonamide], the “Emax, % of reference agonist” value is given as 101.3%. Besides, the pEC50 under setting [1] is 6.57.

In the case of `CCOC(=O)N1CC[C@@H](NS(C)(=O)=O)[C@H]1CO[C@H]1CC[C@@H](c2ccccc2)CC1` (relative stereo) [Example 4, ethyl (CIS)-3-(methylsulfonamido)-2-((((CIS)-4-phenylcyclohexyl)oxy)methyl) pyrrolidine-1-carboxylate], the “Emax, % of reference agonist” value is given as 98.9%. The pEC50 under setting [1] was 6.60.

As to `CC(C)OC(=O)N1CC[C@@H](NS(C)(=O)=O)[C@H]1CO[C@H]1CC[C@@H](c2ccccc2)CC1` (relative stereo) [Example 5, isopropyl (CIS)-3-(methylsulfonamido)-2-((((CIS)-4-phenylcyclohexyl)oxy)methyl) pyrrolidine-1-carboxylate], the “Emax, % of reference agonist” value was found to be 92.8%. Further, the pEC50 under setting [1] is 5.58.

Turning to `CS(=O)(=O)N[C@@H]1CCN(C(=O)OCCF)[C@@H]1CO[C@H]1CC[C@@H](c2ccccc2)CC1` (relative stereo) [Example 6, 2-fluoroethyl (CIS)-3-(methylsulfonamido)-2-((((CIS)-4-phenylcyclohexyl)oxy)methyl) pyrrolidine-1-carboxylate], the “Emax, % of reference agonist” value worked out at 98.4%. Further, the pEC50 under setting [1] was 6.67.

`CC(=O)OCC(=O)N1CC[C@H](NS(C)(=O)=O)[C@@H]1CO[C@H]1CC[C@@H](c2ccccc2)CC1` (relative stereo) [Example 7, 2-((CIS)-3-(methylsulfonamido)-2-((((CIS)-4-phenylcyclohexyl)oxy)methyl)pyrrolidin-1-yl)-2-oxoethyl acetate]: the “Emax, % of reference agonist” value stood at 98.8%. Besides, the pEC50 under setting [1] was 6.44.

Consider `CS(=O)(=O)N[C@H]1CCN(C(=O)C2CC2)[C@H]1CO[C@H]1CC[C@@H](c2ccccc2)CC1` (relative stereo) [Example 8, N-((CIS)-1-(cyclopropanecarbonyl)-2-((((CIS)-4-phenylcyclohexyl)oxy)methyl)pyrrolidin-3-yl) methanesulfonamide], for which the “Emax, % of reference agonist” value is reported as 101.6%. Also, under setting [1], the pEC50 is 7.11.

As to `CC(C)NC(=O)N1CC[C@@H](NS(C)(=O)=O)[C@H]1CO[C@H]1CC[C@@H](c2ccccc2)CC1` (relative stereo) [Example 9, (CIS)-N-isopropyl-3-(methylsulfonamido)-2-((((CIS)-4-phenylcyclohexyl)oxy)methyl) pyrrolidine-1-carboxamide], the “Emax, % of reference agonist” value is 99.2%. For the same compound, the pEC50 under setting [1] is 7.44.

As to `CS(=O)(=O)N[C@H]1CCN(C(=O)NCC(F)(F)F)[C@H]1CO[C@H]1CC[C@@H](c2ccccc2)CC1` (relative stereo) [Example 10, (CIS)-3-(methylsulfonamido)-2-((((CIS)-4-phenylcyclohexyl)oxy)methyl)-N-(2,2,2-trifluoroethyl)pyrrolidine-1-carboxamide], the “Emax, % of reference agonist” value amounted to 103.7%. Moreover, under setting [1], the pEC50 was 8.44.

As to `CCS(=O)(=O)N[C@H]1CCN(C(=O)OC)[C@H]1CO[C@H]1CC[C@@H](c2ccccc2)CC1` (relative stereo) [Example 13, methyl (CIS)-3-(ethylsulfonamido)-2-((((CIS)-4-phenylcyclohexyl)oxy)methyl)pyrrolidine-1-carboxylate], the “Emax, % of reference agonist” value is 99.9%. In addition, the pEC50 under setting [1] was 6.87.

Turning to `COC(=O)N1CC[C@@H](NS(=O)(=O)C(C)C)[C@H]1CO[C@H]1CC[C@@H](c2ccccc2)CC1` (relative stereo) [Example 14, methyl (CIS)-3-((1-methylethyl)sulfonamido)-2-((((CIS)-4-phenylcyclohexyl)oxy)methyl) pyrrolidine-1-carboxylate], the “Emax, % of reference agonist” value was 101.3%. Moreover, the pEC50 under setting [1] is 6.43.

`COC(=O)N1CC[C@@H](NS(=O)(=O)C2CC2)[C@H]1CO[C@H]1CC[C@@H](c2ccccc2)CC1` (relative stereo) [Example 15, methyl (CIS)-3-(cyclopropanesulfonamido)-2-((((CIS)-4-phenylcyclohexyl)oxy)methyl) pyrrolidine-1-carboxylate]: the “Emax, % of reference agonist” value is reported as 99.8%. Besides, the pEC50 under setting [1] is 6.52.

With `COC(=O)N1CC[C@@H](NS(=O)(=O)CF)[C@H]1CO[C@H]1CC[C@@H](c2ccccc2)CC1` (relative stereo) [Example 16, methyl (CIS)-3-((fluoromethyl)sulfonamido)-2-((((CIS)-4-phenylcyclohexyl)oxy)methyl) pyrrolidine-1-carboxylate], the “Emax, % of reference agonist” value amounted to 100.7%. In addition, under setting [1], the pEC50 is 6.75.

In the case of `COC(=O)N1CC[C@H](NS(=O)(=O)c2ccccc2)[C@@H]1CO[C@H]1CC[C@@H](c2ccccc2)CC1` (relative stereo) [Example 17, methyl (CIS)-2-((((CIS)-4-phenylcyclohexyl)oxy)methyl)-3-(phenylsulfonamido)pyrrolidine-1-carboxylate], the “Emax, % of reference agonist” value is given as 82.3%. The pEC50 under setting [1] was 5.43.

`CNS(=O)(=O)N[C@@H]1CCN(C(=O)OC)[C@@H]1CO[C@H]1CC[C@@H](c2ccccc2)CC1` (relative stereo) [Example 18, methyl (CIS)-3-((N-methylsulfamoyl)amino)-2-((((CIS)-4-phenylcyclohexyl)oxy)methyl) pyrrolidine-1-carboxylate]: the “Emax, % of reference agonist” value is 98.5%. Also, the negative-log EC50 (pEC50) under setting [1] is 7.18.

For the compound `COC(=O)N1CC[C@@H](NS(=O)(=O)N(C)C)[C@H]1CO[C@H]1CC[C@@H](c2ccccc2)CC1` (relative stereo) [Example 19, methyl (CIS)-3-((N,N-dimethylsulfamoyl)amino)-2-((((CIS)-4-phenylcyclohexyl)oxy)methyl) pyrrolidine-1-carboxylate], the “Emax, % of reference agonist” value was 98.8%. Besides, the pEC50 under setting [1] is 7.40.

The values are drawn from US12331018B2, “Pyrrolidine orexin receptor agonists” (Merck Sharp & Dohme LLC, priority 2019, dated 2025).
